Reference: US8399465B2, “Compounds with two fused bicyclic heteroaryl moieties as modulators of leukotriene A4 hydrolase” (Janssen Pharmaceutica NV, priority 2009, dated 2013)
Counter-ions that a name gives are not always drawn.

target: T1, recombinant human LTA4 hydrolase (rhLTA4H) (Homo sapiens, UniProt P09960); assay: Recombinant human LTA4 hydrolase assay for LTA4 hydrolase inhibitor activity; format: biochemical; conditions: not given
T1 construct: made in house; host or cells: Spodoptera frugiperda (Sf-9) cells, baculovirus (pFastBac1)
T1 sequence (P09960 1-611): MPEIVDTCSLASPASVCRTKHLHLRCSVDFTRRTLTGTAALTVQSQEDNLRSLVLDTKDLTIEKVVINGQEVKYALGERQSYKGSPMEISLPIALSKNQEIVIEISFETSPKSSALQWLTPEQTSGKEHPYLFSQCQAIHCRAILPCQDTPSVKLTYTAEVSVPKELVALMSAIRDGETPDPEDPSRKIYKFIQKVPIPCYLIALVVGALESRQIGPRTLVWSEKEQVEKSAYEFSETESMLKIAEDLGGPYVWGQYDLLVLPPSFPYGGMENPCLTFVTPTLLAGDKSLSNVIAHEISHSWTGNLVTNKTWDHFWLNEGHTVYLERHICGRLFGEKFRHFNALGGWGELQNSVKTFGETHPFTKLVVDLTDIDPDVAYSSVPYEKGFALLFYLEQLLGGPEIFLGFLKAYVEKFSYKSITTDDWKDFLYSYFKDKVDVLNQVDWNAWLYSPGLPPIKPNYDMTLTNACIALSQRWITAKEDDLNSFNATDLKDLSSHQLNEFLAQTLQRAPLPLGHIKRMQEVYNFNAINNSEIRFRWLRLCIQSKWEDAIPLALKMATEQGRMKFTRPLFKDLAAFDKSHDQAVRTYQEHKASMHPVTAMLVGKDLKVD
Description: Assay 1: Recombinant Human LTA4 Hydrolase Assay for LTA4 Hydrolase Inhibitor Activity
Compounds of the present invention were tested for LTA4 hydrolase inhibitor activity against recombinant human LTA4 hydrolase (rhLTA4H). Vectors were prepared and used to express rhLTA4H essentially as follows: LTA4 hydrolase encoding DNA was amplified by polymerase chain reaction (PCR) using a human placental cDNA library as a template. […] The amplified 1.9 kb DNA fragment encoding LTA4 hydrolase was isolated and cloned into the pFastBac1 vector (Invitrogen). Recombinant baculovirus was generated as described by the manufacturer, and used to infect Spodoptera frugiperda (Sf-9) cells. […] The purified enzyme solution was adjusted to contain 0.29 mg/mL LTA4 hydrolase, 50 mM Tris (pH 8.0), 150 mM NaCl, 5 mM dithiothreitol, 50% glycerol, and EDTA-free Complete protease inhibitor cocktail (Roche).
LTA4 substrate was prepared from the methyl ester of LTA4 (Cayman Chemical) by treatment with 67 equiv of NaOH under nitrogen at rt for 40 min. The LTA4 substrate in its free acid form was kept frozen at −80° C. until needed. Each compound was diluted to different concentrations in assay buffer (from Assay Designs) containing 10% DMSO. A 25-μL aliquot of each compound dilution was incubated for 10 min at rt with an equal volume of assay buffer containing 10 ng of recombinant human LTA4H. The solution was then adjusted to 200 μL with assay buffer. […] Each reaction was carried out at rt for 30 min. The reaction was stopped by diluting 10 μL of the reaction mixture with 200 μL of assay buffer. LTB4 was quantified in the diluted sample by a commercially available enzyme-linked immunoassay (Cayman Chemical Co.), as recommended by the manufacturer. Positive controls, under essentially identical conditions but without addition of an inhibitor compound, and negative controls, containing all assay components except enzyme, were routinely run in each experiment. IC50 values were determined by nonlinear regression of the activity data at different compound concentrations using Graphpad Prism 4.0, one site binding competition.
The values presented here are the result of a single determination or an average of two or more determinations. Compounds that were not tested are indicated as such by a “NT” designation.

For `CC(=O)N1C[C@@H]2C[C@H]1CN2Cc1cc2cc(Oc3nc4cnccc4s3)ccc2o1` [Example 199, (1S,4S)-1-{5-[5-(Thiazolo[4,5-c]pyridin-2-yloxy)-benzofuran-2-ylmethyl]-2,5-diaza-bicyclo[2.2.1]hept-2-yl}-ethanone formate], the IC50 was 338 nM.

same assay, conditions: rhLTA4H, LTB4 by immunoassay; single determination or average of two or more; mark after value = form tested: ′ free base, ″ hydrochloride, ^ formate; read-out: IC50

In order of falling IC50:
1. CC(=O)N1C[C@@H]2C[C@H]1CN2Cc1cc2ccc(Oc3nc4cnccc4s3)cc2o1 [Example 203, (1S,4S)-1-{5-[6-(Thiazolo[4,5-c]pyridin-2-yloxy)-benzofuran-2-ylmethyl]-2,5-diaza-bicyclo[2.2.1]hept-2-yl}-ethanone]  2570 nM
2. CC(=O)N1C[C@H]2CC[C@@H](C1)N2Cc1cc2ccc(Oc3nc4cccnc4s3)cc2o1 [Example 124, meso-1-{8-[6-(Thiazolo[5,4-b]pyridin-2-yloxy)-benzofuran-2-ylmethyl]-3,8-diaza-bicyclo[3.2.1]oct-3-yl}-ethanone]  1470 nM
3. CC(=O)N[C@H]1C[C@H]2CC[C@@H](C1)N2Cc1cc2cc(Oc3nc4cnccc4s3)ccc2o1 [Example 200, meso-endo-N-{8-[5-(Thiazolo[4,5-c]pyridin-2-yloxy)-benzofuran-2-ylmethyl]-8-aza-bicyclo[3.2.1]oct-3-yl}-acetamide formate]  1130 nM
4. CC(C)(C)OC(=O)C1CCN(Cc2cc3ccc(Oc4nc5ncccc5s4)cc3o2)CC1 [Example 225, 1-[6-(Thiazolo[4,5-b]pyridin-2-yloxy)-benzofuran-2-ylmethyl]-piperidine-4-carboxylic acid tert-butyl ester]  765 nM
5. c1ccc2sc(Oc3ccc4cc(CN5CCCCC5)sc4c3)nc2c1 [Example 132, 2-(2-Piperidin-1-ylmethyl-benzo[b]thiophen-6-yloxy)-benzothiazole]  720 nM
6. CC(=O)N[C@H]1C[C@H]2CC[C@@H](C1)N2Cc1cc2ccc(Oc3nc4cccnc4s3)cc2o1 [Example 126, meso-endo-N-{8-[6-(Thiazolo[5,4-b]pyridin-2-yloxy)-benzofuran-2-ylmethyl]-8-aza-bicyclo[3.2.1]oct-3-yl}-acetamide]  610 nM
7. c1ccc2sc(Oc3ccc4cc(CN5CCOCC5)sc4c3)nc2c1 [Example 133, (2-Morpholin-4-ylmethyl-benzo[b]thiophen-6-yloxy)-benzothiazole]  473 nM
8. CC(=O)N1C[C@@H]2C[C@H]1CN2Cc1coc2cc(Oc3nc4cnccc4s3)ccc12 [Example 222, (1S,4S)-1-{5-[6-(Thiazolo[4,5-c]pyridin-2-yloxy)-benzofuran-3-ylmethyl]-2,5-diaza-bicyclo[2.2.1]hept-2-yl}-ethanone]  365 nM
9. CC(=O)N1CCCC2(CCN(Cc3cc4cc(Oc5nc6ncccc6s5)ccc4o3)C2)C1 (stereo not drawn) [Example 166, 1-{2-[5-(Thiazolo[4,5-b]pyridin-2-yloxy)-benzofuran-2-ylmethyl]-2,7-diaza-spiro[4.5]dec-7-yl}-ethanone]  286 nM
10. CC(=O)N[C@H]1C[C@H]2CC[C@@H](C1)N2Cc1cc2ccc(Oc3nc4cnccc4s3)cc2o1 [Example 201, meso-endo-N-{8-[6-(Thiazolo[4,5-c]pyridin-2-yloxy)-benzofuran-2-ylmethyl]-8-aza-bicyclo[3.2.1]oct-3-yl}-acetamide]  236 nM
11. CC(=O)N1C[C@@H]2C[C@H]1CN2Cc1coc2cc(Oc3nc4cccnc4s3)ccc12 [Example 221, (1S,4S)-1-{5-[6-(Thiazolo[5,4-b]pyridin-2-yloxy)-benzofuran-3-ylmethyl]-2,5-diaza-bicyclo[2.2.1]hept-2-yl}-ethanone]  227 nM
12. CC(=O)N[C@H]1C[C@H]2CC[C@@H](C1)N2Cc1cc2cc(Oc3nc4cccnc4s3)ccc2o1 [Example 125, meso-endo-N-{8-[5-(Thiazolo[5,4-b]pyridin-2-yloxy)-benzofuran-2-ylmethyl]-8-aza-bicyclo[3.2.1]oct-3-yl}-acetamide]  200 nM
13. NC(=O)N1C[C@H]2CC[C@@H](C1)N2Cc1cc2cc(Oc3nc4ccccc4s3)ccc2o1 [Example 173, meso-8-[5-(Benzothiazol-2-yloxy)-benzofuran-2-ylmethyl]-3,8-diaza-bicyclo[3.2.1]octane-3-carboxylic acid amide]  187 nM
14. CCOC(=O)C1CCN(Cc2coc3cc(Oc4nc5ccccc5s4)ccc23)CC1 [Example 223, 1-[6-(Benzothiazol-2-yloxy)-benzofuran-3-ylmethyl]-piperidine-4-carboxylic acid ethyl ester]  175 nM
15. CCOC(=O)C1CCN(CCc2coc3cc(Oc4nc5ccccc5s4)ccc23)CC1 [Example 149, 1-{2-[6-(Benzothiazol-2-yloxy)-benzofuran-3-yl]-ethyl}-piperidine-4-carboxylic acid ethyl ester]  170 nM
16. NC(=O)C1CCN(Cc2cc3ccc(Oc4nc5ncccc5s4)cc3s2)CC1 [Example 138, 1-[6-(Thiazolo[4,5-b]pyridin-2-yloxy)-benzo[b]thiophen-2-ylmethyl]-piperidine-4-carboxylic acid amide]  169 nM
17. CNC(=O)C1CCN(Cc2cc3ccc(Oc4nc5ncccc5s4)cc3o2)CC1 [Example 204, 1-[6-(Thiazolo[4,5-b]pyridin-2-yloxy)-benzofuran-2-ylmethyl]-piperidine-4-carboxylic acid methylamide]  169 nM
18. O=C(C1CCN(Cc2cc3ccc(Oc4nc5ncccc5s4)cc3o2)CC1)N1CCCC1 [Example 205, Pyrrolidin-1-yl-{1-[6-(thiazolo[4,5-b]pyridin-2-yloxy)-benzofuran-2-ylmethyl]-piperidin-4-yl}-methanone]  120 nM
19. c1cnc2nc(Oc3ccc4cc(CN5CCCCC5)sc4c3)sc2c1 [Example 136, 2-(2-Piperidin-1-ylmethyl-benzo[b]thiophen-6-yloxy)-thiazolo[4,5-b]pyridine]  117 nM
20. FC1CCN(Cc2cc3ccc(Oc4nc5ncccc5s4)cc3o2)CC1 [Example 190, 2-[2-(4-Fluoro-piperidin-1-ylmethyl)-benzofuran-6-yloxy]-thiazolo[4,5-b]pyridine formate]  116 nM
21. FC(F)(F)C1CCN(Cc2coc3cc(Oc4nc5ncccc5s4)ccc23)CC1 [Example 163, 2-[3-(4-Trifluoromethyl-piperidin-1-ylmethyl)-benzofuran-6-yloxy]-thiazolo[4,5-b]pyridine]  107 nM
22. CC(=O)N1C[C@H]2CC[C@@H](C1)N2Cc1cc2cc(Oc3nc4cccnc4s3)ccc2o1 [Example 123, meso-1-{8-[5-(Thiazolo[5,4-b]pyridin-2-yloxy)-benzofuran-2-ylmethyl]-3,8-diaza-bicyclo[3.2.1]oct-3-yl}-ethanone]  89 nM
23. CS(=O)(=O)NC1CCN(Cc2cc3ccc(Oc4nc5ncccc5s4)cc3o2)C1 (stereo not drawn) [Example 128, N-(1-{[6-([1,3]thiazolo[4,5-b]pyridin-2-yloxy)-1-benzofuran-2-yl]methyl}pyrrolidin-3-yl)methanesulfonamide formate]  84 nM
24. NC(=O)NC1CCN(Cc2cc3ccc(Oc4nc5ncccc5s4)cc3o2)C1 (stereo not drawn) [Example 127, 1-(1-{[6-([1,3]Thiazolo[4,5-b]pyridin-2-yloxy)-1-benzofuran-2-yl]methyl}pyrrolidin-3-yl)urea formate]  62 nM
25. CC(=O)N1C[C@H]2CC[C@@H](C1)N2CCc1coc2cc(Oc3nc4ncccc4s3)ccc12 [Example 130, meso-1-(8-{2-[6-(Thiazolo[4,5-b]pyridin-2-yloxy)-benzofuran-3-yl]-ethyl}-3,8-diaza-bicyclo[3.2.1]oct-3-yl)-ethanone]  5 nM
26. CC(=O)N[C@H]1C[C@H]2CC[C@@H](C1)N2CCc1coc2cc(Oc3nc4ncccc4s3)ccc12 [Example 131, meso-endo-N-(8-{2-[6-(Thiazolo[4,5-b]pyridin-2-yloxy)-benzofuran-3-yl]-ethyl}-8-aza-bicyclo[3.2.1]oct-3-yl)acetamide]  5 nM
